Assay results reported in the supplement of paper PMC11061612.

Assays:
Carboplatin = compound: C1CC(C1)(C(=O)[O-])C(=O)[O-].N.N.[Pt+2] [Carboplatin]; conditions: max 10 µM
How it was run: (§1)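 Cancer cell lines were dosed for 72 hours (final DMSO typically 0.2%) after 24 hours at 37°C and 5% CO2 in 1536-well plates containing 7.5 μl DMEM/F12 or RPMI with 10% FBS. Viability came from CellTiter-Glo 2.0 luminescence, scaled between blank-well and DMSO-well means, and dose responses were fitted to a two-parameter logistic curve with a non-linear mixed effects model. The single-agent IC50 was obtained from this fit.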

AZD5363 = compound: C1CN(CCC1(C(=O)N[C@@H](CCO)C2=CC=C(C=C2)Cl)N)C3=NC=NC4=C3C=CN4 [AZD5363]; conditions: max 10 µM
How it was run: as §1

AZD1775 = compound: C=CCn1c(=O)c2cnc(Nc3ccc(N4CCN(C)CC4)cc3)nc2n1-c1cccc(C(C)(C)O)n1 [AZD1775]; conditions: max 3 µM
How it was run: as §1

Trametinib = compound: CC(=O)Nc1cccc(-n2c(=O)n(C3CC3)c(=O)c3c(Nc4ccc(I)cc4F)n(C)c(=O)c(C)c32)c1 [Trametinib]; conditions: max 1 µM
How it was run: as §1

Paclitaxel = compound: CC(=O)O[C@H]1C(=O)[C@@]2(C)[C@H]([C@H](OC(=O)c3ccccc3)[C@]3(O)C[C@H](OC(=O)[C@H](O)[C@@H](NC(=O)c4ccccc4)c4ccccc4)C(C)=C1C3(C)C)[C@]1(OC(C)=O)CO[C@@H]1C[C@@H]2O [Paclitaxel]; conditions: max 3 µM
How it was run: as §1

Palbociclib = compound: CC(=O)c1c(C)c2cnc(Nc3ccc(N4CCNCC4)cn3)nc2n(C2CCCC2)c1=O [Palbociclib]; conditions: max 10 µM
How it was run: as §1

AZD1390 = compound: CC(C)n1c(=O)n(C)c2cnc3cc(F)c(-c4ccc(OCCCN5CCCCC5)nc4)cc3c21 [AZD1390]; conditions: max 0.3 µM
How it was run: as §1

Venetoclax = compound: CC1(C)CCC(CN2CCN(c3ccc(C(=O)NS(=O)(=O)c4ccc(NCC5CCOCC5)c([N+](=O)[O-])c4)c(Oc4cnc5[nH]ccc5c4)c3)CC2)=C(c2ccc(Cl)cc2)C1 [Venetoclax]; conditions: max 1 µM
How it was run: as §1

Dasatinib = compound: CC1=C(C(=CC=C1)Cl)NC(=O)C2=CN=C(S2)NC3=CC(=NC(=N3)C)N4CCN(CC4)CCO [Dasatinib]; conditions: max 2 µM
How it was run: as §1

SG3199 = compound: CC1=CN2[C@@H](C1)C=NC3=CC(=C(C=C3C2=O)OC)OCCCCCOC4=C(C=C5C(=C4)N=C[C@@H]6CC(=CN6C5=O)C)OC [SG3199]; conditions: max 0.001 µM
How it was run: as §1

AZD2811 = compound: CCN(CCO)CCCOc1ccc2c(Nc3cc(CC(=O)Nc4cccc(F)c4)[nH]n3)ncnc2c1 [AZD2811]; conditions: max 1 µM
How it was run: as §1

SN-38 = compound: CCc1c2c(nc3ccc(O)cc13)-c1cc3c(c(=O)n1C2)COC(=O)[C@]3(O)CC [SN-38]; conditions: max 0.3 µM
How it was run: as §1

AZD0156 = compound: CN(C)CCCOc1ccc(-c2ccc3ncc4c(c3c2)n(C2CCOCC2)c(=O)n4C)cn1 [AZD0156]; conditions: max 3 µM
How it was run: as §1

AZD4320 = compound: CN(CC[C@H](CSC1=CC=CC=C1)NC2=C(C=C(C=C2)S(=O)(=O)NC(=O)C3=CC=C(C=C3)N4CCC(CC4)[C@H](C5=CC=CC=C5C6=CC=C(C=C6)Cl)O)S(=O)(=O)C(F)(F)F)CCO [AZD4320]; conditions: max 1 µM
How it was run: as §1

Alisertib = compound: COc1cc(Nc2ncc3c(n2)-c2ccc(Cl)cc2C(c2c(F)cccc2OC)=NC3)ccc1C(=O)O [Alisertib]; conditions: max 10 µM
How it was run: as §1

Etoposide = compound: COc1cc([C@@H]2c3cc4c(cc3[C@@H](O[C@@H]3O[C@@H]5CO[C@@H](C)O[C@H]5[C@H](O)[C@H]3O)[C@H]3COC(=O)[C@H]23)OCO4)cc(OC)c1O [Etoposide]; conditions: max 10 µM
How it was run: as §1

Gefitinib = compound: COc1cc2ncnc(Nc3ccc(F)c(Cl)c3)c2cc1OCCCN1CCOCC1 [Gefitinib]; conditions: max 10 µM
How it was run: as §1

Prexasertib = compound: COc1cccc(OCCCN)c1-c1cc(Nc2cnc(C#N)cn2)n[nH]1 [Prexasertib]; conditions: max 1 µM
How it was run: as §1

Doxorubicin = compound: COc1cccc2c1C(=O)c1c(O)c3c(c(O)c1C2=O)C[C@@](O)(C(=O)CO)C[C@@H]3O[C@H]1C[C@H](N)[C@H](O)[C@H](C)O1 [Doxorubicin]; conditions: max 1 µM
How it was run: as §1

AZD5153 = compound: COc1nnc2ccc(N3CCC(c4ccc(OCCN5CCN(C)C(=O)[C@H]5C)cc4)CC3)nn12 [AZD5153]; conditions: max 1 µM
How it was run: as §1

Lapatinib = compound: CS(=O)(=O)CCNCc1ccc(-c2ccc3ncnc(Nc4ccc(OCc5cccc(F)c5)c(Cl)c4)c3c2)o1 [Lapatinib]; conditions: max 10 µM
How it was run: as §1

AZD8186 = compound: C[C@@H](Nc1cc(F)cc(F)c1)c1cc(C(=O)N(C)C)cc2c(=O)cc(N3CCOCC3)oc12 [AZD8186]; conditions: max 10 µM
How it was run: as §1

Crizotinib = compound: C[C@@H](Oc1cc(-c2cnn(C3CCNCC3)c2)cnc1N)c1c(Cl)ccc(F)c1Cl [Crizotinib]; conditions: max 10 µM
How it was run: as §1

Savolitinib = compound: C[C@@H](c1ccc2nccn2c1)n1nnc2ncc(-c3cnn(C)c3)nc21 [Savolitinib]; conditions: max 1 µM
How it was run: as §1

AZD6738 = compound: C[C@@H]1COCCN1C2=NC(=NC(=C2)C3(CC3)[S@](=N)(=O)C)C4=C5C=CNC5=NC=C4 [AZD6738]; conditions: max 10 µM
How it was run: as §1

AZD5991 = compound: Cc1c2c(nn1C)CSCc1cc(n(C)n1)CSc1cc(c3ccccc3c1)OCCCc1c(C(=O)O)n(C)c3c-2c(Cl)ccc13 [AZD5991]; conditions: max 1 µM
How it was run: as §1

AZD7648 = compound: Cc1cc2ncnn2cc1Nc1ncc2c(n1)n(C1CCOCC1)c(=O)n2C [AZD7648]; conditions: max 10 µM
How it was run: as §1

Taselisib = compound: Cc1nc(-c2cn3c(n2)-c2ccc(-c4cnn(C(C)(C)C(N)=O)c4)cc2OCC3)n(C(C)C)n1 [Taselisib]; conditions: max 10 µM
How it was run: as §1

Selumetinib = compound: Cn1cnc2c(F)c(Nc3ccc(Br)cc3Cl)c(C(=O)NOCCO)cc21 [Selumetinib]; conditions: max 10 µM
How it was run: as §1

SRA737 = compound: N#Cc1cnc(Nc2cc(NC[C@H]3CNCCO3)c(C(F)(F)F)cn2)cn1 [SRA737]; conditions: max 10 µM
How it was run: as §1

MK-2206 = compound: NC1(c2ccc(-c3nc4ccn5c(=O)[nH]nc5c4cc3-c3ccccc3)cc2)CCC1 [MK-2206]; conditions: max 10 µM
How it was run: as §1

Gemcitabine = compound: Nc1ccn([C@@H]2O[C@H](CO)[C@@H](O)C2(F)F)c(=O)n1 [Gemcitabine]; conditions: max 0.3 µM
How it was run: as §1

[1] = compound: O=C(Nc1ccc2[nH]nc(-c3ccncc3)c2c1)[C@@H]1CCN(CC(=O)N2CCN(c3ccc(-c4ncccn4)cc3)CC2)C1; conditions: max 5 µM
How it was run: as §1

Olaparib = compound: O=C(c1cc(Cc2n[nH]c(=O)c3ccccc23)ccc1F)N1CCN(C(=O)C2CC2)CC1 [Olaparib]; conditions: max 10 µM
How it was run: as §1

5-Fluorouracil = compound: O=c1[nH]cc(F)c(=O)[nH]1 [5-Fluorouracil]; conditions: max 20 µM
How it was run: as §1

Row | Cell Line | IC50, cell viability 72 h (Carboplatin) | IC50, cell viability 72 h (AZD5363) | IC50, cell viability 72 h (AZD1775) | IC50, cell viability 72 h (Trametinib) | IC50, cell viability 72 h (Paclitaxel) | IC50, cell viability 72 h (Palbociclib) | IC50, cell viability 72 h (AZD1390) | IC50, cell viability 72 h (Venetoclax) | IC50, cell viability 72 h (Dasatinib) | IC50, cell viability 72 h (SG3199) | IC50, cell viability 72 h (AZD2811) | IC50, cell viability 72 h (SN-38) | IC50, cell viability 72 h (AZD0156) | IC50, cell viability 72 h (AZD4320) | IC50, cell viability 72 h (Alisertib) | IC50, cell viability 72 h (Etoposide) | IC50, cell viability 72 h (Gefitinib) | IC50, cell viability 72 h (Prexasertib) | IC50, cell viability 72 h (Doxorubicin) | IC50, cell viability 72 h (AZD5153) | IC50, cell viability 72 h (Lapatinib) | IC50, cell viability 72 h (AZD8186) | IC50, cell viability 72 h (Crizotinib) | IC50, cell viability 72 h (Savolitinib) | IC50, cell viability 72 h (AZD6738) | IC50, cell viability 72 h (AZD5991) | IC50, cell viability 72 h (AZD7648) | IC50, cell viability 72 h (Taselisib) | IC50, cell viability 72 h (Selumetinib) | IC50, cell viability 72 h (SRA737) | IC50, cell viability 72 h (MK-2206) | IC50, cell viability 72 h (Gemcitabine) | IC50, cell viability 72 h [1] | IC50, cell viability 72 h (Olaparib) | IC50, cell viability 72 h (5-Fluorouracil)
1 | BC-1 (B-Cell Non-Hodgkin's Lymphoma) | > 10000 nM | 4400 nM | 321 nM | > 1000 nM | 12.1 nM | 342 nM | > 300 nM | > 1000 nM | > 2000 nM | > 1 nM | 199 nM | 5.32 nM | 2420 nM | > 1000 nM | 65.3 nM | 770 nM | 9560 nM | 13 nM | 50 nM | 17.5 nM | 8740 nM | > 10000 nM | 1690 nM | > 1000 nM | 2950 nM | 87.2 nM | > 10000 nM | > 10000 nM | > 10000 nM | 2700 nM | 4100 nM | 15.4 nM | > 5000 nM | > 10000 nM | 17200 nM
2 | C32 (Melanoma) | > 10000 nM | > 10000 nM | > 3000 nM | 4.11 nM | 346 nM | > 10000 nM | > 300 nM | > 1000 nM | > 2000 nM | > 1 nM | > 1000 nM | 61.7 nM | > 3000 nM | > 1000 nM | > 10000 nM | > 10000 nM | > 10000 nM | 52.7 nM | > 1000 nM | > 1000 nM | > 10000 nM | > 10000 nM | > 10000 nM | > 1000 nM | 8160 nM | > 1000 nM | > 10000 nM | > 10000 nM | 323 nM | > 10000 nM | > 10000 nM | 54.1 nM | 174 nM | > 10000 nM | > 20000 nM
3 | CAL-85-1 (Breast Carcinoma) | > 10000 nM | > 10000 nM | 2040 nM | 351 nM | 66.7 nM | > 10000 nM | > 300 nM | > 1000 nM | 1210 nM | > 1 nM | > 1000 nM | 96.5 nM | > 3000 nM | > 1000 nM | > 10000 nM | > 10000 nM | > 10000 nM | > 1000 nM | > 1000 nM | 534 nM | > 10000 nM | > 10000 nM | > 10000 nM | > 1000 nM | > 10000 nM | > 1000 nM | > 10000 nM | 6290 nM | > 10000 nM | > 10000 nM | > 10000 nM | 246 nM | > 5000 nM | > 10000 nM | > 20000 nM
4 | COR-L105 (Lung Adenocarcinoma) | > 10000 nM | > 10000 nM | 2080 nM | 244 nM | > 3000 nM | > 10000 nM | > 300 nM | > 1000 nM | > 2000 nM | > 1 nM | > 1000 nM | > 300 nM | > 3000 nM | > 1000 nM | > 10000 nM | > 10000 nM | 2490 nM | > 1000 nM | > 1000 nM | > 1000 nM | 6660 nM | > 10000 nM | > 10000 nM | > 1000 nM | > 10000 nM | > 1000 nM | > 10000 nM | 7360 nM | > 10000 nM | > 10000 nM | > 10000 nM | > 300 nM | > 5000 nM | > 10000 nM | > 20000 nM
5 | GCIY (Gastric Carcinoma) | > 10000 nM | > 10000 nM | > 3000 nM | 271 nM | 549 nM | > 10000 nM | > 300 nM | > 1000 nM | 589 nM | > 1 nM | > 1000 nM | 90 nM | > 3000 nM | > 1000 nM | 1210 nM | > 10000 nM | > 10000 nM | 41.9 nM | > 1000 nM | > 1000 nM | > 10000 nM | > 10000 nM | > 10000 nM | > 1000 nM | 3030 nM | > 1000 nM | > 10000 nM | 895 nM | > 10000 nM | > 10000 nM | > 10000 nM | > 300 nM | > 5000 nM | > 10000 nM | > 20000 nM
